Earlier results as cited in patent publication US7442558B2, “Phthalamide-lanthanide complexes for use as luminescent markers” (The Regents of the University of California, priority 1999, dated 2008).
Several values for one entry are separate records, joined by “and”; a condition that tells them apart may be missing. Identical values can stand only once. Counter-ions that a name gives are not always drawn.

Conditions: in 0.05 M H2SO4; reference standard; cited from earlier work

In the case of `C=C[C@H]1C[N@@]2CC[C@H]1C[C@H]2[C@H](O)c1ccnc2ccc(OC)cc12` [quinine sulfate], the absolute quantum yield is listed as 0.54 and 0.5460.
